In US20060287313A1, “Isoquinoline compounds and methods of use thereof” (Inotek Pharmaceuticals Corporation, priority 2005, published 2006):
pEC50, pIC50: −log10 of the molar value.

Tests used:
purified PARS enzyme = target: T1, purified PARS enzyme (Homo sapiens, UniProt P09874); test: Purified PARS enzyme assay (Trevigen PARS inhibition assay kit); assay type: biochemical; details: Table 1, inhibitory effect on PARS; assay not given
T1 construct: purchased Trevigen, Gaithersburg, Md
Description: The assay is performed in 96 well ELISA plates according to instructions provided with a commercially available PARS inhibition assay kit (for example, from Trevigen, Gaithersburg, Md.).
The assay was performed in 96 well ELISA plates according to instructions provided with a commercially available PARS inhibition assay kit (Trevigen, Gaithersburg, Md.). Briefly, wells were coated with 1 mg/ml histone (50 μl/well) at 4 C overnight. Plates were then washed four times with PBS and then blocked by adding 50 μl Strep-Diluent (supplied with the kit). After incubation (1 h, 25° C.), the plates were washed four times with PBS. […] The reaction was allowed to proceed for 30 min at room temperature. After 4 washes in PBS, incorporated biotin was detected by peroxidase-conjugated streptavidin (1:500 dilution) and TACS Sapphire substrate.

PARS = target: T2, PARS (Mus musculus, UniProt P11103); test: Cell protection assay: PARS activity in peroxynitrite-treated raw murine macrophages; assay type: cell-based; details: peroxynitrite 750 μM, 3H-NAD incorporation, calculated from a dose-response curve
T2 construct: endogenous in cells; host or cells: RAW murine macrophages
T2 sequence (P11103 whole entry): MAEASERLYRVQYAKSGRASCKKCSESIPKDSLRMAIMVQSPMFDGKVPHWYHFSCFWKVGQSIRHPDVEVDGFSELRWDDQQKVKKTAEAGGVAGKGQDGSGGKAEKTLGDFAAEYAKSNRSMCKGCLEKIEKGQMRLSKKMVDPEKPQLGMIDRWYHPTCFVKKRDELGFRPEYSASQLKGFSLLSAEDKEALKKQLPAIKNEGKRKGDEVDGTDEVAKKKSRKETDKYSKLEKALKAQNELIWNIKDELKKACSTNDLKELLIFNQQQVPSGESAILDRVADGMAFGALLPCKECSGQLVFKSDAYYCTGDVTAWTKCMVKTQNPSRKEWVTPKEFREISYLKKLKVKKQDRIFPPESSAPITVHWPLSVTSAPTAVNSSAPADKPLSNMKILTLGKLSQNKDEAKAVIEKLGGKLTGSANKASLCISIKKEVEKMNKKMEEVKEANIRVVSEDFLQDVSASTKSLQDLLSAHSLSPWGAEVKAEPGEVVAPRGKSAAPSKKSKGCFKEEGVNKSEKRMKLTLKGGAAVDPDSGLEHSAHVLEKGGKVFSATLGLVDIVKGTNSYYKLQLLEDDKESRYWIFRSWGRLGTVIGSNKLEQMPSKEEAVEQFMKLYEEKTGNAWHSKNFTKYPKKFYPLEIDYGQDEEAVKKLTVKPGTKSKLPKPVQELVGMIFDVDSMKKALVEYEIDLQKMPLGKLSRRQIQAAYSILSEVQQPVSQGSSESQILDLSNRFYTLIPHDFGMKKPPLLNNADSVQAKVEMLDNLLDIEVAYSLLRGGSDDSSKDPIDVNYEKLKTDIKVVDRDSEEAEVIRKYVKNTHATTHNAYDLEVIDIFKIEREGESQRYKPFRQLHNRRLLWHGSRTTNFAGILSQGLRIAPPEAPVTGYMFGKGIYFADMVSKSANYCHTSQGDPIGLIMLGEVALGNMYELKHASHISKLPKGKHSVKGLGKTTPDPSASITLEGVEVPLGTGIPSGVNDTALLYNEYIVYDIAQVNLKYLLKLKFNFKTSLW
Description: The media was removed and replaced with 0.5 mL HEPES (pH 7.5) containing 0.01% digitonin and ^3H-NAD (0.5 μCi/mL, final concentration of NAD+ in buffer is […]) and the resultant mixture was allowed to stand for 20 minutes. […] The tubes were maintained at 4° C. for four hours, centrifuged at 1800 g for 10 minutes, and the supernatant removed. […] The contents of the tubes were then added to ScintiSafe Plus scintillation liquid (6.5 ml, Fisher Scientific) and radioactivity was measured using a liquid scintillation counter (Wallac, Gaithersburg, Md.).

T1 sequence (P09874 whole entry): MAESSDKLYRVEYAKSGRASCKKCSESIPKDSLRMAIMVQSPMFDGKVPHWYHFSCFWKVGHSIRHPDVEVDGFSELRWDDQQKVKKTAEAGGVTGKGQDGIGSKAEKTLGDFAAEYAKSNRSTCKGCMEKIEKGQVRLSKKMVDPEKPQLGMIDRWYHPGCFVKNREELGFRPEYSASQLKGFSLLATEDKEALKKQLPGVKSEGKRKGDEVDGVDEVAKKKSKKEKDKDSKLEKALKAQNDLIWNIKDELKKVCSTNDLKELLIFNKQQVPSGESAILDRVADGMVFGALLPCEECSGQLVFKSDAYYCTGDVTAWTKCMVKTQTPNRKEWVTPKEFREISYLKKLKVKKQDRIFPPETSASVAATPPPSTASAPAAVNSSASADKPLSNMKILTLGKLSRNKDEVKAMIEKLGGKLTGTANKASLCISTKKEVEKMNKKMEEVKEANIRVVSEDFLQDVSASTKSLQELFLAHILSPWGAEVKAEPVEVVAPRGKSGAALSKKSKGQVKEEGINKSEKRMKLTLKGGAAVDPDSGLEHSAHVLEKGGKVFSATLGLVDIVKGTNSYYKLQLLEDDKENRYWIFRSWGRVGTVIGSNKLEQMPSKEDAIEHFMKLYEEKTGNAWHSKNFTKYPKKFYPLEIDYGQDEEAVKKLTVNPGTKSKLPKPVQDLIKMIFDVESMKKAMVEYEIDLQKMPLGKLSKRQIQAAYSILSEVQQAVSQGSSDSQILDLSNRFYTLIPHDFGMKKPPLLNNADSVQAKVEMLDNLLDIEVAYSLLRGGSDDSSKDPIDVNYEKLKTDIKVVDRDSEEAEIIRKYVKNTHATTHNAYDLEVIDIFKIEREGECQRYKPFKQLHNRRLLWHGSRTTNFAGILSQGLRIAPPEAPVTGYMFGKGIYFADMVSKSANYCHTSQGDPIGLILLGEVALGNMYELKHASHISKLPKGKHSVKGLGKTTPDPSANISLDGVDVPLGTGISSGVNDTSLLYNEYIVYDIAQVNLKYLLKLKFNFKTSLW

SMILES | pIC50 (purified PARS enzyme) | pEC50 (PARS)
O=C(CN1CC=C(c2ccccc2)CC1)Nc1ccc2c(c1)Cc1c-2[nH]c(=O)c2ccccc12 [Compound 12a, N-(5-Oxo-5,11-dihydro-6H-indeno[1,2-c]isoquinolin-9-yl)-2-(4-phenyl-3,6-dihydro-2H-pyridin-1-yl)-acetamide] | 7.10 | –
CCCNC(=O)Nc1ccc2c(c1)Cc1c-2[nH]c(=O)c2ccccc12 [Compound 27] | 7.00 | –
CN(C)CC(=O)Nc1ccc2c(c1)-c1[nH]c(=O)c3ccccc3c1C2 [Compound 56a, N-[5,6-Dihydro-5-oxo-indeno[1,2-c]isoquinolin-8-yl]-N,N-dimethylacetamide] | 6.10 | –

Further lines, results first:

pIC50 (purified PARS enzyme) | pEC50 (PARS) | SMILES
– | 6.70 | CN(C)CC(=O)Nc1cccc2c1Cc1c-2[nH]c(=O)c2ccccc12 [Compound 3a]
– | 6.55 | CN(C)CCC(=O)Nc1cccc2c1Cc1c-2[nH]c(=O)c2ccccc12 [Compound 3b]
